What is called IC50 is the point on the concentration scale where inhibition reaches its midpoint.

Results on 21 molecules are retold here after US10023570B2 (Array BioPharma, Inc., priority 2015, dated 2018).

Where a name gives a salt, the structure may show the parent alone. Read-outs that look alike come from different tables or passages of the source.

Test [1] concerns the target N-terminal GST tagged recombinant human RET cytoplasmic domain (aa 658-end), wild type RET kinase (Homo sapiens (Human), UniProt P07949). Nature of the test: RET Enzyme Assay (HTRF KinEASE-TK), wild type RET. Type of test: biochemical.
In test [2] the target is Kif5b-RET fusion protein in HEK-293 cells (Homo sapiens, UniProt P07949). Nature of the test: cell-based. How it is done: The cellular potency of a compound inhibiting RET kinase was determined in HEK-293 cells expressing a Kif5b-RET fusion protein. Briefly, HEK-293 cells expressing a Kif5b-RET fusion protein were plated at 50K cells/well in 96 well poly-D-Lysine coated plates the day prior to the assay. The cells were incubated for 1 hour with test compound in DMEM (Dulbecco's Modified Eagle Medium) at a final DMSO concentration of 0.5%. […] After 1 hour the media was removed, the cells were fixed with 3.8% formaldehyde for 20 min, washed with PBS, and permeabilized for 10 min with 100% methanol. […] All antibodies were diluted in LI-COR Block containing 0.05% Tween. The plates were washed with PBS-0.05% Tween20, 100 μL PBS was added to each well, and the plates were read on a LI-COR Aerius fluorescent plate reader. The phospho-RET signal was normalized to the GAPDH signal. […] The IC50 value is the point where the curve crosses 50 POC.

Test [3] concerns the target human KDR protein in HEK-293 cells (Homo sapiens (Human), UniProt P35968). Nature of the test: KDR Cell Assay (phospho-KDR in HEK-293 cells expressing inducible KDR). Type of test: cell-based. The settings on record: pKDR Cell HEK 10% FBS IC50, HEK-293 cells expressing inducible KDR, VEGF stimulated. The method in brief:
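HEK-293 cells with inducible human KDR were treated with compound for 1 h in DMEM (0.25% DMSO final), then lysed. Phospho-KDR was quantified by Meso Scale immunoassay, expressed as percent of control, and IC50 taken where a 4-parameter logistic fit crossed 50 POC.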

Where [4] appears, read: HEK-293 cells expressing Kif5b-RET, read-out: KIF5B-RET pTYR1062 Cell IC50.
The mark [5] stands for this setting: HEK-293 cells expressing Kif5b-RET, phospho-RET(Tyr1062), read-out: KIF5B-RET pTYR1062 Cell IC50.

Chain of N-terminal GST tagged recombinant human RET cytoplasmic domain (aa 658-end), wild type RET kinase (P07949 658-1114): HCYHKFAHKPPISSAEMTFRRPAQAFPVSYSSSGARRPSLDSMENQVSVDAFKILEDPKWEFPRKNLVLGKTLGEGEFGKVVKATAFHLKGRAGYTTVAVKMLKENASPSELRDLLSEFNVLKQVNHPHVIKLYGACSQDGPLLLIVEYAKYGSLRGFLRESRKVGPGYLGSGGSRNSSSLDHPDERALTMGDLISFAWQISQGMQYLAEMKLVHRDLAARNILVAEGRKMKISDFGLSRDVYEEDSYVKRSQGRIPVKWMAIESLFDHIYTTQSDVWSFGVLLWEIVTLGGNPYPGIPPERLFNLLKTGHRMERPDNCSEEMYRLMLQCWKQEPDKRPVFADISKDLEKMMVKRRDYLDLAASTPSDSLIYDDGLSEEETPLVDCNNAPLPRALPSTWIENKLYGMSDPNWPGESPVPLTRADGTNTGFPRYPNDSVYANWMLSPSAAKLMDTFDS
Chain of human KDR protein in HEK-293 cells (P35968 20-1356): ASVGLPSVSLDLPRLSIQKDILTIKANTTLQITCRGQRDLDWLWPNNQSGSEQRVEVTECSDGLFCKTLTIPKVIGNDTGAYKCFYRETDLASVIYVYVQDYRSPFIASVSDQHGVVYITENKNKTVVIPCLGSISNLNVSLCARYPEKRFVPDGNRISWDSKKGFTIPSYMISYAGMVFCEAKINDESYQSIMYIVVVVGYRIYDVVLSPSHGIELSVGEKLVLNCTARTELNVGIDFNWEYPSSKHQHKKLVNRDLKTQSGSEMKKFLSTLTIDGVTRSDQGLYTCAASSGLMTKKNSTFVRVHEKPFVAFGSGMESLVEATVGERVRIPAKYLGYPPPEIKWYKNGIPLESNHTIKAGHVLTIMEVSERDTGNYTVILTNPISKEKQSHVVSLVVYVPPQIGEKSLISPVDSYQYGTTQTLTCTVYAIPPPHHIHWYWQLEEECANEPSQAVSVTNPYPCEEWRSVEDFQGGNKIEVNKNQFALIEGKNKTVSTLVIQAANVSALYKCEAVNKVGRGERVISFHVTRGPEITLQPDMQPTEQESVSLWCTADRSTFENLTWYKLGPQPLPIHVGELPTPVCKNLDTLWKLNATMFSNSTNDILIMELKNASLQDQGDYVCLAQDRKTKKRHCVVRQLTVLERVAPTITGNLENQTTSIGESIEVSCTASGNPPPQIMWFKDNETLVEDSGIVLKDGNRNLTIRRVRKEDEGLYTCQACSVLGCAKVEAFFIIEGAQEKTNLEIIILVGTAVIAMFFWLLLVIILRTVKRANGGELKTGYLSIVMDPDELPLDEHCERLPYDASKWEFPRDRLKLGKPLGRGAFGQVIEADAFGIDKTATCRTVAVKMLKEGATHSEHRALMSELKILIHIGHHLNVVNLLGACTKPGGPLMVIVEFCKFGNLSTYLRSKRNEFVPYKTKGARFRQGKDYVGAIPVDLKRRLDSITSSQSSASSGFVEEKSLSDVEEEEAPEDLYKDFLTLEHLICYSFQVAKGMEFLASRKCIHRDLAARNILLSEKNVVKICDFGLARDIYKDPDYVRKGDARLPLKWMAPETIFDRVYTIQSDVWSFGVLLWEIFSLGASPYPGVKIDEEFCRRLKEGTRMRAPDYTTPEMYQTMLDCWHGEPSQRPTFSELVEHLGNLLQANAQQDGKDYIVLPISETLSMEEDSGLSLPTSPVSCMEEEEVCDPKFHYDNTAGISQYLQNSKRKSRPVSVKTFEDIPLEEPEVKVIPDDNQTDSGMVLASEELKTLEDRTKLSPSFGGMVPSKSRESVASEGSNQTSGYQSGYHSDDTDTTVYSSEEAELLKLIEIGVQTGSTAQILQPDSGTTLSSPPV
Chain of Kif5b-RET fusion protein in HEK-293 cells (P07949 29-1114 limits assumed): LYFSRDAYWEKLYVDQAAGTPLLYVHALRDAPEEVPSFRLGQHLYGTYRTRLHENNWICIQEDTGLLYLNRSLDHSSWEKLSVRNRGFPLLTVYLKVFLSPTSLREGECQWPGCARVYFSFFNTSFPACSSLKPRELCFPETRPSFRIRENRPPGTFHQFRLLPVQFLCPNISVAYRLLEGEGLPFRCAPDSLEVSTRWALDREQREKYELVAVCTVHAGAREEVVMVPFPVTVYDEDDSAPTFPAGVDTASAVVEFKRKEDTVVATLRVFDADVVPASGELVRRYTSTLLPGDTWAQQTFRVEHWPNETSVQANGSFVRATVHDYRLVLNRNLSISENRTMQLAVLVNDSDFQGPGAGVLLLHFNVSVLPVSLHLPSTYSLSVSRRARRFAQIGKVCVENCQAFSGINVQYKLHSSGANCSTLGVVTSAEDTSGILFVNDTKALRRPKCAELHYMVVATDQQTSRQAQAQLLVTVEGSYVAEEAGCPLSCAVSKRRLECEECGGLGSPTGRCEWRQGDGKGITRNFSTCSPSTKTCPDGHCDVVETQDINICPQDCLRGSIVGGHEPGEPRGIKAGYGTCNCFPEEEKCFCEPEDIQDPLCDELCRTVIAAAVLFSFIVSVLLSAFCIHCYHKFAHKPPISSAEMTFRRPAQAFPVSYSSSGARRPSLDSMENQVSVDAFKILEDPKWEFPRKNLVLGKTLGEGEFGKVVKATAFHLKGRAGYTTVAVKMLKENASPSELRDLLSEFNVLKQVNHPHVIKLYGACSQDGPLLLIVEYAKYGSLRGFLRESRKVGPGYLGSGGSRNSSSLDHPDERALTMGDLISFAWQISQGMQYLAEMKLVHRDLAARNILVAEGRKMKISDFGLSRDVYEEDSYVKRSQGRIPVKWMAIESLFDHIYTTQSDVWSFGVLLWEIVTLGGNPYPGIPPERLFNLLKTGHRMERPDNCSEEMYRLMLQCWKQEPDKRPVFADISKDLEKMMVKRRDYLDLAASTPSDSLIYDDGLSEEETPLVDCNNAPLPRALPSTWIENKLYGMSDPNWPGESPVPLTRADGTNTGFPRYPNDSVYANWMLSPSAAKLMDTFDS

As to `COC(C)(C)CN1CCN(c2ccc(-c3cc(-c4cnn(C)c4)cn4ncc(C#N)c34)cn2)CC1` [Example 414, 4-(6-(4-(2-methoxy-2-methylpropyl)piperazin-1-yl)pyridin-3-yl)-6-(1-methyl-1H-pyrazol-4-yl)pyrazolo[1,5-a]pyridine-3-carbonitrile], the IC50 in test [1] (wild type RET, 1 mM ATP) is 41.3 nM; in test [2] (setting [4]), 41.5 nM; in test [3], 2280 nM.

As to `COCC(=O)NC1CCN(c2ccc(-c3cc(-c4cnn(C)c4)cn4ncc(C#N)c34)cn2)CC1` [Example 183, N-(1-(5-(3-cyano-6-(1-methyl-1H-pyrazol-4-yl)pyrazolo[1,5-a]pyridin-4-yl)pyridin-2-yl)piperidin-4-yl)-2-methoxyacetamide], the IC50 worked out at 11.9 nM in test [1] (wild type RET, 1 mM ATP); 15.8 nM in test [2] (setting [5]); 444 nM in test [3] (10% FBS).

Turning to `Cn1cc(-c2cc(-c3ccc(N4CCC(C(=O)NOC(C)(C)C)CC4)nc3)c3c(C#N)cnn3c2)cn1` [Example 565, N-(tert-butoxy)-1-(5-(3-cyano-6-(1-methyl-1H-pyrazol-4-yl)pyrazolo[1,5-a]pyridin-4-yl)pyridin-2-yl)piperidine-4-carboxamide], the IC50 in test [1] (wild type RET, 1 mM ATP) amounted to 6.4 nM; in test [2] (setting [4]), 10.3 nM; in test [3] it was 540 nM.

Consider `COc1cccc(CN2CCN(c3ccc(-c4cc(-c5cnn(C)c5)cn5ncc(C#N)c45)cn3)CC2)n1` [Example 399, 4-(6-(4-((6-methoxypyridin-2-yl)methyl)piperazin-1-yl)pyridin-3-yl)-6-(1-methyl-1H-pyrazol-4-yl)pyrazolo[1,5-a]pyridine-3-carbonitrile], for which the IC50 in test [1] (wild type RET, 1 mM ATP) is 10.8 nM; in test [2] (setting [4]), 7.7 nM.

Regarding `CC(C)(C)OC(=O)N1CCN(c2ccc(-c3cc(-c4cnn(C(F)F)c4)cn4ncc(C#N)c34)cn2)CC1` [Example 265, tert-Butyl 4-(5-(3-cyano-6-(1-(difluoromethyl)-1H-pyrazol-4-yl)pyrazolo[1,5-a]pyridin-4-yl)pyridin-2-yl)piperazine-1-carboxylate], the IC50 stood at 153 nM in test [1] (wild type RET, 1 mM ATP) and 289 nM in test [2] (setting [5]).

As for `COc1ccc(CN2CCN(c3ccc(-c4cc(-c5cnn(CC(C)CO)c5)cn5ncc(C#N)c45)cn3)CC2)cn1` (stereo in doubt) [Example 708, (S)-6-(1-(3-hydroxy-2-methylpropyl)-1H-pyrazol-4-yl)-4-(6-(4-((6-methoxypyridin-3-yl)methyl)piperazin-1-yl)pyridin-3-yl)pyrazolo[1,5-a]pyridine-3-carbonitrile], the IC50 is 19.4 nM in test [1] (wild type RET, 1 mM ATP) and 7 nM in test [2] (setting [4]).

In the case of `COc1ccc(CN2CCN(c3ccc(-c4cc(-c5cnn(C(C)C)c5)cn5ncc(C#N)c45)cn3)CC2)cn1` [Example 697, 6-(1-isopropyl-1H-pyrazol-4-yl)-4-(6-(4-((6-methoxypyridin-3-yl)methyl)piperazin-1-yl)pyridin-3-yl)pyrazolo[1,5-a]pyridine-3-carbonitrile], the IC50 is 28.1 nM in test [1] (wild type RET, 1 mM ATP) and 13.8 nM in test [2].

For the molecule `N#Cc1cnn2cc(-c3cnn(C(F)F)c3)cc(-c3ccc(N4CCNCC4)nc3)c12` [Example 266, 6-(1-(difluoromethyl)-1H-pyrazol-4-yl)-4-(6-(piperazin-1-yl)pyridin-3-yl)pyrazolo[1,5-a]pyridine-3-carbonitrile dihydrochloride], the IC50 came to 47.7 nM in test [1] (wild type RET, 1 mM ATP) and 162 nM in test [2] (read-out: KIF5B-RET pTYR1062 Cell IC50).

With `C[C@H](O)C(=O)NC1CCN(c2ccc(-c3cc(-c4cnn(C)c4)cn4ncc(C#N)c34)cn2)CC1` [Example 180, (S)-N-(1-(5-(3-cyano-6-(1-methyl-1H-pyrazol-4-yl)pyrazolo[1,5-a]pyridin-4-yl)pyridin-2-yl)piperidin-4-yl)-2-hydroxypropanamide], the IC50 in test [1] (wild type RET, 1 mM ATP) was determined as 13.6 nM; in test [2] (setting [5]), 135 nM.

For `CC(C)C(=O)N[C@H]1CCCN(c2ccc(-c3cc(-c4cnn(C)c4)cn4ncc(C#N)c34)cn2)C1` [Example 225, (S)—N-(1-(5-(3-cyano-6-(1-methyl-1H-pyrazol-4-yl)pyrazolo[1,5-a]pyridin-4-yl)pyridin-2-yl)piperidin-3-yl)isobutyramide], the IC50 in test [1] (wild type RET, 1 mM ATP) worked out at 104 nM; in test [2] (setting [5]) it was 462 nM.

Regarding `COc1ccc(CN2CCN(c3ccc(-c4cc(-c5cnn(CC(=O)N(C)C)c5)cn5ncc(C#N)c45)cn3)CC2)cn1` [Example 710, 2-(4-(3-cyano-4-(6-(4-((6-methoxypyridin-3-yl)methyl)piperazin-l-yl)pyridin-3-yl)pyrazolo[1,5-a]pyridin-6-yl)-1H-pyrazol-1-yl)-N,N-dimethylacetamide], the IC50 amounted to 20 nM in test [1] (wild type RET, 1 mM ATP) and 12.6 nM in test [2] (setting [4]).

In the case of `Cc1cnn2cc(-c3cnn(C)c3)cc(-c3ccc(N4CCN(Cc5ccccn5)CC4)nc3)c12` [Example 654, 3-methyl-6-(1-methyl-1H-pyrazol-4-yl)-4-(6-(4-(pyridine-2-ylmethyl)piperazin-1-yl)pyridin-3-yl)pyrazolo[1,5-a]pyridine], the IC50 in test [1] (wild type RET, 1 mM ATP) was found to be 70.6 nM; in test [2] (setting [4]), 164 nM.

As for `Cn1cc(-c2cc(-c3ccc(N4CCN(Cc5ccc(OCC(F)(F)F)nc5)CC4)nc3)c3c(C#N)cnn3c2)cn1` [Example 674, 6-(1-methyl-1H-pyrazol-4-yl)-4-(6-(4-((6-(2,2,2-trifluoroethoxy)pyridin-3-yl)methyl)piperazin-1-yl)pyridin-3-yl)pyrazolo[1,5-a]pyridine-3-carbonitrile], the IC50 is 42.5 nM in test [1] (wild type RET, 1 mM ATP) and 74.7 nM in test [2] (setting [4]).

As to `CN(C)CCCC(=O)N1CCN(c2ccc(-c3cc(-c4cnn(C)c4)cn4ncc(C#N)c34)cn2)CC1` [Example 52, 4-(6-(4-(4-(dimethylamino)butanoyl)piperazin-1-yl)pyridin-3-yl)-6-(1-methyl-1H-pyrazol-4-yl)pyrazolo[1,5-a]pyridine-3-carbonitrile bis(2,2,2-trifluoroacetate)], the IC50 in test [1] amounted to 17.7 nM; in test [2] (setting [5]), 340 nM.

Turning to `COc1ccc(CN2CCN(c3ccc(-c4cc(-c5cnn(CCC(=O)N(C)C)c5)cn5ncc(C#N)c45)cn3)CC2)cn1` [Example 706, 3-(4-(3-cyano-4-(6-(4-((6-methoxypyridin-3-yl)methyl)piperazin-1-yl)pyridin-3-yl)pyrazolo[1,5-a]pyridin-6-yl)-1H-pyrazol-1-yl)-N,N-dimethylpropanamide], the IC50 in test [1] (wild type RET, 1 mM ATP) came out at 18.3 nM; in test [2] (setting [4]) it was 6.4 nM.

Turning to `CC(C)S(=O)(=O)CCN1CCN(c2ccc(-c3cc(-c4cnn(C)c4)cn4ncc(C#N)c34)cn2)CC1` [Example 403, 4-(6-(4-(2-(isopropylsulfonyl)ethyl)piperazin-1-yl)pyridin-3-yl)-6-(1-methyl-1H-pyrazol-4-yl)pyrazolo[1,5-a]pyridine-3-carbonitrile], the IC50 in test [1] (wild type RET, 1 mM ATP) amounted to 10.8 nM; in test [2] (setting [4]), 4.6 nM.

`CC(C)OCCN1CCN(c2ccc(-c3cc(-c4cnn(C(F)F)c4)cn4ncc(C#N)c34)cn2)CC1` [Example 585, 6-(1-(difluoromethyl)-1H-pyrazol-4-yl)-4-(6-(4-(2-isopropoxyethyl)piperazin-1-yl)pyridin-3-yl)pyrazolo[1,5-a]pyridine-3-carbonitrile]: the IC50 in test [1] (wild type RET, 1 mM ATP) was 13.6 nM; in test [2], 13.2 nM.

Turning to `COc1cccc(CN2CCN(c3ccc(-c4cc(-c5cn[nH]c5)cn5ncc(C#N)c45)cn3)CC2)n1` [Example 699, 4-(6-(4-((6-methoxypyridin-2-yl)methyl)piperazin-1-yl)pyridin-3-yl)-6-(1H-pyrazol-4-yl)pyrazolo[1,5-a]pyridine-3-carbonitrile], the IC50 in test [1] (wild type RET, 1 mM ATP) amounted to 19.4 nM; in test [2] (setting [4]), 24.3 nM.

As for `COc1ccc(CN2CCN(c3ccc(-c4cc(-c5cnn(C)c5)cn5ncc(C#N)c45)cn3)CC2)c(C)n1` [Example 678, 4-(6-(4-((6-methoxy-2-methylpyridin-3-yl)methyl)piperazin-l-yl)pyridin-3-yl)-6-(1-methyl-1H-pyrazol-4-yl)pyrazolo[1,5-a]pyridine-3-carbonitrile], the IC50 came to 15 nM in test [1] (wild type RET, 1 mM ATP) and 16.3 nM in test [2].

On to `Cc1nn(C(C)(C)C)cc1-c1cc(-c2ccc(N3CCN(Cc4ccccc4)CC3)nc2)c2c(C#N)cnn2c1` [Example 616, 4-(6-(4-benzylpiperazin-1-yl)pyridin-3-yl)-6-(1-(tert-butyl)-3-methyl-1H-pyrazol-4-yl)pyrazolo[1,5-a]pyridine-3-carb onitrile], for which the IC50 in test [1] (wild type RET, 1 mM ATP) came to 60.8 nM; in test [2], 85.2 nM.

With `COc1ccc(CN2CCN(c3ccc(-c4cc(-c5cnn(C[C@H](C)O)c5)cn5ncc(C#N)c45)cn3)CC2)cn1` [Example 701, (S)-6-(1-(2-hydroxypropyl)-1H-pyrazol-4-yl)-4-(6-(4-((6-methoxypyridin-3-yl)methyl)piperazin-1-yl)pyridin-3-yl)pyrazolo[5-a]pyridine-3-carbonitrile], the IC50 in test [1] (wild type RET, 1 mM ATP) came out at 16.5 nM; in test [2] (setting [4]) it was 8 nM.
